Test results as given in PubChem BioAssay (NCI).
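Results reflect a 48-hour exposure of cells in 96-well plates to compound at five concentrations. Here, GI50 denotes the concentration required for 50% inhibition of growth. At the TGI there is no net growth.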

Columns and labels:
Assay in all cases: NCI-60 cell line screen, 48 h
786-0 renal = tested on: 786-0 renal
A498 renal = tested on: A498 renal
A549 NSCLC = tested on: A549 NSCLC
ACHN renal = tested on: ACHN renal
BT-549 breast = tested on: BT-549 breast
CAKI-1 renal = tested on: CAKI-1 renal
CCRF-CEM leukemia = tested on: CCRF-CEM leukemia
COLO 205 colon = tested on: COLO 205 colon
DU-145 prostate = tested on: DU-145 prostate
EKVX NSCLC = tested on: EKVX NSCLC
HCC-2998 colon = tested on: HCC-2998 colon
HCT-116 colon = tested on: HCT-116 colon
HCT-15 colon = tested on: HCT-15 colon
HL-60(TB) leukemia = tested on: HL-60(TB) leukemia
HOP-62 NSCLC = tested on: HOP-62 NSCLC
HOP-92 NSCLC = tested on: HOP-92 NSCLC
HS 578T breast = tested on: HS 578T breast
HT29 colon = tested on: HT29 colon
IGROV1 ovarian = tested on: IGROV1 ovarian
K-562 leukemia = tested on: K-562 leukemia
KM12 colon = tested on: KM12 colon
LOX IMVI melanoma = tested on: LOX IMVI melanoma
M14 melanoma = tested on: M14 melanoma
MALME-3M melanoma = tested on: MALME-3M melanoma
MCF7 breast = tested on: MCF7 breast
MDA-MB-231 breast = tested on: MDA-MB-231 breast
MDA-MB-435 = tested on: MDA-MB-435
MOLT-4 leukemia = tested on: MOLT-4 leukemia
NCI-H226 lung = tested on: NCI-H226 lung
NCI-H23 lung = tested on: NCI-H23 lung
NCI-H460 lung = tested on: NCI-H460 lung
NCI-H522 lung = tested on: NCI-H522 lung
NCI/ADR-RES ovarian = tested on: NCI/ADR-RES ovarian
OVCAR-3 ovarian = tested on: OVCAR-3 ovarian
OVCAR-4 ovarian = tested on: OVCAR-4 ovarian
OVCAR-5 ovarian = tested on: OVCAR-5 ovarian
OVCAR-8 ovarian = tested on: OVCAR-8 ovarian
PC-3 prostate = tested on: PC-3 prostate
RPMI-8226 leukemia = tested on: RPMI-8226 leukemia
RXF 393 renal = tested on: RXF 393 renal
SF-268 CNS = tested on: SF-268 CNS
SF-295 CNS = tested on: SF-295 CNS
SF-539 CNS = tested on: SF-539 CNS
SK-MEL-2 melanoma = tested on: SK-MEL-2 melanoma
SK-MEL-28 melanoma = tested on: SK-MEL-28 melanoma
SK-MEL-5 melanoma = tested on: SK-MEL-5 melanoma
SK-OV-3 ovarian = tested on: SK-OV-3 ovarian
SN12C renal = tested on: SN12C renal
SNB-19 CNS = tested on: SNB-19 CNS
SNB-75 CNS = tested on: SNB-75 CNS
SR leukemia = tested on: SR leukemia
SW-620 colon = tested on: SW-620 colon
T-47D breast = tested on: T-47D breast
TK-10 renal = tested on: TK-10 renal
U251 CNS = tested on: U251 CNS
UACC-257 melanoma = tested on: UACC-257 melanoma
UACC-62 melanoma = tested on: UACC-62 melanoma
UO-31 renal = tested on: UO-31 renal

SMILES: O=C(/C=C/c1cc(Cl)ccc1Cl)Nc1ncc(Cc2ccc(Cl)cc2)s1
- GI50 (786-0 renal): 112 nM
- TGI (786-0 renal): 3240 nM
- GI50 (A498 renal): 31.6 nM
- TGI (A498 renal): 235 nM
- GI50 (A549 NSCLC): 99.2 nM
- TGI (A549 NSCLC): 13000 nM
- GI50 (ACHN renal): 128 nM
- TGI (ACHN renal): 5290 nM
- GI50 (BT-549 breast): 57.4 nM
- TGI (BT-549 breast): 379 nM
- GI50 (CAKI-1 renal): 61.8 nM
- TGI (CAKI-1 renal): 2170 nM
- GI50 (CCRF-CEM leukemia): 37.6 nM
- TGI (CCRF-CEM leukemia): > 100000 nM
- GI50 (COLO 205 colon): 82.3 nM
- TGI (COLO 205 colon): 378 nM
- GI50 (DU-145 prostate): 300 nM
- TGI (DU-145 prostate): 15900 nM
- GI50 (EKVX NSCLC): 158 nM
- TGI (EKVX NSCLC): > 72900 nM
- GI50 (HCC-2998 colon): 209 nM
- TGI (HCC-2998 colon): 10700 nM
- GI50 (HCT-116 colon): 42 nM
- TGI (HCT-116 colon): 5850 nM
- GI50 (HCT-15 colon): 44.8 nM
- TGI (HCT-15 colon): > 37900 nM
- GI50 (HL-60(TB) leukemia): 28.2 nM
- TGI (HL-60(TB) leukemia): 256 nM
- GI50 (HOP-62 NSCLC): 80.3 nM
- TGI (HOP-62 NSCLC): 6030 nM
- GI50 (HOP-92 NSCLC): 715 nM
- TGI (HOP-92 NSCLC): 5870 nM
- GI50 (HS 578T breast): 52.4 nM
- TGI (HS 578T breast): 6180 nM
- GI50 (HT29 colon): 86.8 nM
- TGI (HT29 colon): 1210 nM
- GI50 (IGROV1 ovarian): 165 nM
- TGI (IGROV1 ovarian): 16300 nM
- GI50 (K-562 leukemia): 35.2 nM
- TGI (K-562 leukemia): > 100000 nM
- GI50 (KM12 colon): 53.5 nM
- TGI (KM12 colon): > 28100 nM
- GI50 (LOX IMVI melanoma): 101 nM
- TGI (LOX IMVI melanoma): 11300 nM
- GI50 (M14 melanoma): 40.5 nM
- TGI (M14 melanoma): 1490 nM
- GI50 (MALME-3M melanoma): 866 nM
- TGI (MALME-3M melanoma): 43300 nM
- GI50 (MCF7 breast): 83.3 nM
- TGI (MCF7 breast): > 38800 nM
- GI50 (MDA-MB-231 breast): 179 nM
- TGI (MDA-MB-231 breast): 9530 nM
- GI50 (MDA-MB-435): 19.2 nM
- TGI (MDA-MB-435): 41.4 nM
- GI50 (MOLT-4 leukemia): 122 nM
- TGI (MOLT-4 leukemia): > 100000 nM
- GI50 (NCI-H226 lung): 310 nM
- TGI (NCI-H226 lung): 12000 nM
- GI50 (NCI-H23 lung): 67.3 nM
- TGI (NCI-H23 lung): 11000 nM
- GI50 (NCI-H460 lung): 64 nM
- TGI (NCI-H460 lung): 1510 nM
- GI50 (NCI-H522 lung): 33.3 nM
- TGI (NCI-H522 lung): 155 nM
- GI50 (NCI/ADR-RES ovarian): 42.9 nM
- TGI (NCI/ADR-RES ovarian): 2280 nM
- GI50 (OVCAR-3 ovarian): 113 nM
- TGI (OVCAR-3 ovarian): 1280 nM
- GI50 (OVCAR-4 ovarian): 1590 nM
- TGI (OVCAR-4 ovarian): 10800 nM
- GI50 (OVCAR-5 ovarian): 197 nM
- TGI (OVCAR-5 ovarian): 13800 nM
- GI50 (OVCAR-8 ovarian): 69.5 nM
- TGI (OVCAR-8 ovarian): 1840 nM
- GI50 (PC-3 prostate): 105 nM
- TGI (PC-3 prostate): > 53700 nM
- GI50 (RPMI-8226 leukemia): 67.4 nM
- TGI (RPMI-8226 leukemia): 16500 nM
- GI50 (RXF 393 renal): 27.6 nM
- TGI (RXF 393 renal): 306 nM
- GI50 (SF-268 CNS): 1170 nM
- TGI (SF-268 CNS): 52900 nM
- GI50 (SF-295 CNS): 38.2 nM
- TGI (SF-295 CNS): 5130 nM
- GI50 (SF-539 CNS): 32.8 nM
- TGI (SF-539 CNS): 202 nM
- GI50 (SK-MEL-2 melanoma): 144 nM
- TGI (SK-MEL-2 melanoma): 4520 nM
- GI50 (SK-MEL-28 melanoma): 1980 nM
- TGI (SK-MEL-28 melanoma): 53400 nM
- GI50 (SK-MEL-5 melanoma): 299 nM
- TGI (SK-MEL-5 melanoma): 5190 nM
- GI50 (SK-OV-3 ovarian): 78.7 nM
- TGI (SK-OV-3 ovarian): 17000 nM
- GI50 (SN12C renal): 150 nM
- TGI (SN12C renal): 11700 nM
- GI50 (SNB-19 CNS): 70.2 nM
- TGI (SNB-19 CNS): 31400 nM
- GI50 (SNB-75 CNS): 39.1 nM
- TGI (SNB-75 CNS): 2470 nM
- GI50 (SR leukemia): 32.4 nM
- TGI (SR leukemia): > 100000 nM
- GI50 (SW-620 colon): 45.4 nM
- TGI (SW-620 colon): > 100000 nM
- GI50 (T-47D breast): 14100 nM
- TGI (T-47D breast): > 100000 nM
- GI50 (TK-10 renal): 1300 nM
- TGI (TK-10 renal): 11100 nM
- GI50 (U251 CNS): 39.5 nM
- TGI (U251 CNS): 3880 nM
- GI50 (UACC-257 melanoma): 226 nM
- TGI (UACC-257 melanoma): > 46900 nM
- GI50 (UACC-62 melanoma): 50.7 nM
- TGI (UACC-62 melanoma): 18000 nM
- GI50 (UO-31 renal): 142 nM
- TGI (UO-31 renal): 7360 nM
